# Source: US20220204539A1, “CD73 INHIBITORS” (BioArdis LLC, priority 2019, published 2022)
# How the values were obtained:
# [1] = target: T1, Recombinant Human 5′-Nucleotidase (CD73) (Homo sapiens, UniProt P21589); test: CD73 Enzyme Assay; type: biochemical; details: human CD73 0.5 nM, AMP 30 μM, PiColorLock phosphate detection; read-out: Potency (IC50, CD73 enzyme assay)
# T1 construct: CHO derived CD73 (Trp27-Lys547), with a C-terminal 6-His tag; 6-His (C); purchased R&D 5795-EN; host or cells: CHO
# T1 sequence (P21589 27-547): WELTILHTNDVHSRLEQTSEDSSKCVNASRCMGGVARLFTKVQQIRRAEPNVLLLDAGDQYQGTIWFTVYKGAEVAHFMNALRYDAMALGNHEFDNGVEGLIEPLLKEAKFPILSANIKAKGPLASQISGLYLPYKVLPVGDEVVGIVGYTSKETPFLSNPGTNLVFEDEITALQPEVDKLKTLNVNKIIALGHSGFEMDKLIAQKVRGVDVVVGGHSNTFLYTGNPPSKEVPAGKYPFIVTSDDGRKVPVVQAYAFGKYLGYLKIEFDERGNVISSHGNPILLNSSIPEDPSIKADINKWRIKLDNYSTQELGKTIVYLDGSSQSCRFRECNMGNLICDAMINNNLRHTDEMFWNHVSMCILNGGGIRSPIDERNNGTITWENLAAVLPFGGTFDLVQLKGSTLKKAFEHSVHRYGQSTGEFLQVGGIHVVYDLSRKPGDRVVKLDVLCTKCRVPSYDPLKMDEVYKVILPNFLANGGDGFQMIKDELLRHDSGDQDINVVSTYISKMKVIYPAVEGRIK
# Procedure, shortened: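 Human CD73 (CHO-derived Trp27-Lys547, His-tagged; 0.5 nM final) was preincubated with compound for 15 min at 25° C. in Tris pH 7.5 buffer with MgCl2. It then reacted with 30 μM AMP for 20 min at 37° C., and released phosphate was read by malachite green absorbance at 635 nm. IC50 came from four-parameter fits against enzyme and no-enzyme controls.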
# [2] = target: T2, Cell surface CD73 of U87 MG human glioblastoma cells (Homo sapiens, UniProt P21589); test: CD73 Cellular Assay; type: cell-based; details: 5000 cells per well, 30 μM AMP substrate, read-out: Potency (IC50, CD73 cellular assay)
# T2 construct: Cell surface CD73 catalyzes the conversion of adenosine monophosphate (AMP) to adenosine and inorganic phosphate; endogenous in cells; host or cells: U87 MG human glioblastoma cells
# T2 sequence (P21589 27-549): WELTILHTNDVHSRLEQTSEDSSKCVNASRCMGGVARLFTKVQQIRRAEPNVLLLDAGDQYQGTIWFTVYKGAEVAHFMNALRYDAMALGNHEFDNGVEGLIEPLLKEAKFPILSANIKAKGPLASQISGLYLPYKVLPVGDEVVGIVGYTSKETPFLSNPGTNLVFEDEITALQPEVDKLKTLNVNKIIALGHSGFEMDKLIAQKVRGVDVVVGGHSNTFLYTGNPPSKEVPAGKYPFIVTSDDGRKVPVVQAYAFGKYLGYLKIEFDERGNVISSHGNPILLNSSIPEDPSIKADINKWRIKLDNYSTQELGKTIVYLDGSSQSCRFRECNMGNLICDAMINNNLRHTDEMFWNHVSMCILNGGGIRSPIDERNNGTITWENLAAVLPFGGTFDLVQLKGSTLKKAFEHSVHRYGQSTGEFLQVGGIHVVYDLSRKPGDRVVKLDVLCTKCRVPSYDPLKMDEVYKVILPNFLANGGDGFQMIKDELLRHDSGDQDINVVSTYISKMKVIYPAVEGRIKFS
# Procedure, shortened: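 U87 MG cells (5000/well) preincubated with compound 30 min at 37 °C, 5% CO2, in HEPES-buffered saline pH 7.4 with 0.5% DMSO, then 30 μM AMP (final) for 50 min. Released phosphate in supernatant read colorimetrically at 635 nm; IC50 from four-parameter logistic fit versus cells-plus-substrate and cells-only controls.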
IC50 [1] [nM],IC50 [2] [nM],Compound
< 10,< 1,"CC(C)[C@@H]1CCCN1c1nc(Cl)nn2c([C@@H]3O[C@H](COP(=O)(O)CP(=O)(O)O)[C@@H](O)[C@H]3O)cnc12 [Compound 39, (((((2R,3S,4R,1S)-5-(2-chloro-4-((S)-2-isopropylpyrrolidin-1-yl)imidazo[2,1-f][1,2,4]triazin-7-yl)-3,4-dihydroxytetrahydrofuran-2-yl)methoxy)(hydroxy)phosphoryl)methyl)phosphonic acid]"
< 10,1 to 9.9,"O=P(O)(O)CP(=O)(O)OC[C@H]1O[C@@H](c2cnc3c(N4CCCC45CCCC5)nc(Cl)nn23)[C@H](O)[C@@H]1O [Compound 40, (((((2R,3S,4R,1S)-5-(2-chloro-4-(1-azaspiro[4.4]nonan-1-yl)imidazo[2,1-f][1,2,4]triazin-7-yl)-3,4-dihydroxytetrahydrofuran-2-yl)methoxy)(hydroxy)phosphoryl)methyl)phosphonic Acid]"
< 10,< 1,"O=P(O)(O)CP(=O)(O)OC[C@H]1O[C@@H](c2cnc3c(N4CCCC45CCC5)nc(Cl)nn23)[C@H](O)[C@@H]1O [Compound 41, [({[(2R,3S,4R,5S)-5-(4-{5-azaspiro[3.4]octan-5-yl}-2-chloroimidazo[2,1-f][1,2,4]triazin-7-yl)-3,4-dihydroxyoxolan-2-yl]methoxy}(hydroxy)phosphoryl)methyl]phosphonic Acid]"
< 10,< 1,"O=P(O)(O)CP(=O)(O)OC[C@H]1O[C@@H](c2cnc3c(N4CCOCC4)nc(Cl)nn23)[C@H](O)[C@@H]1O [Compound 42, (((((2R,3S,4R,5S)-5-(2-chloro-4-morpholinoimidazo[2,1-f][1,2,4]triazin-7-yl)-3,4-dihydroxytetrahydrofuran-2-yl)methoxyxhydroxy)phosphoryl)methyl)phosphonic acid]"
< 10,< 1,"O=P(O)(O)CP(=O)(O)OC[C@H]1O[C@@H](c2cnc3c(N4CCCCC4)nc(Cl)nn23)[C@H](O)[C@@H]1O [Compound 43, (((((2R,3S,4R,1S)-5-(2-chloro-4-(piperidin-1-yl)imidazo[2,1-f][1,2,4]triazin-7-yl)-3,4-dihydroxytetrahydrofuran-2-yl)methoxy)(hydroxy)phosphoryl)methyl)phosphonic Acid]"
< 10,< 1,"O=P(O)(O)CP(=O)(O)OC[C@H]1O[C@@H](c2cnc3c(N4CCC(F)(F)CC4)nc(Cl)nn23)[C@H](O)[C@@H]1O [Compound 44, (((((2R,3S,4R,1S)-5-(2-chloro-4-(4,4-difluoropiperidin-1-yl)imidazo[2,1-f][1,2,4]triazin-7-yl)-3,4-dihydroxytetrahydrofuran-2-yl)methoxy)(hydroxy)phosphoryl)methyl)phosphonic Acid]"
< 10,< 1,"O=P(O)(O)CP(=O)(O)OC[C@H]1O[C@@H](c2cnc3c(N4CC5CC5C4)nc(Cl)nn23)[C@H](O)[C@@H]1O (stereo partly drawn) [Compound 45, [({[(2R,3S,4R,5S)-5-(4-{3-azabicyclo[3.1.0]hexan-3-yl}-2-chloroimidazo[2,1-f][1,2,4]triazin-7-yl)-3,4-dihydroxyoxolan-2-yl]methoxy}(hydroxy)phosphoryl)methyl]phosphonic Acid]"
< 10,< 1,"O=P(O)(O)CP(=O)(O)OC[C@H]1O[C@@H](c2cnc3c(N4CCC(F)(F)C4)nc(Cl)nn23)[C@H](O)[C@@H]1O [Compound 46, [({[(2R,3S,4R,5S)-5-[2-chloro-4-(3,3-difluoropyrrolidin-1-yl)imidazo[2,1-f][1,2,4]triazin-7-yl]-3,4-dihydroxyoxolan-2-yl]methoxy}(hydroxy)phosphoryl)methyl]phosphonic Acid]"
< 10,1 to 9.9,"O=P(O)(O)CP(=O)(O)OC[C@H]1O[C@@H](c2cnc3c(NC4CCOCC4)nc(Cl)nn23)[C@H](O)[C@@H]1O [Compound 47, (((((2R,3S,4R,1S)-5-(2-chloro-4-((tetrahydro-2H-pyran-4-yl)amino)imidazo[2,1-f][1,2,4]triazin-7-yl)-3,4-dihydroxytetrahydrofuran-2-yl)methoxy)(hydroxy)phosphoryl)methyl)phosphonic Acid]"
< 10,1 to 9.9,"O=P(O)(O)CP(=O)(O)OC[C@H]1O[C@@H](c2cnc3c(NC4CCC(F)(F)CC4)nc(Cl)nn23)[C@H](O)[C@@H]1O [Compound 48, [({[(2R,3S,4R,5S)-5-{2-chloro-4-[(4,4-difluorocyclohexyl)amino]imidazo[2,1-f][1,2,4]triazin-7-yl}-3,4-dihydroxyoxolan-2-yl]methoxy}(hydroxy)phosphoryl)methyl]phosphonic Acid]"
< 10,< 1,"O=P(O)(O)CP(=O)(O)OC[C@H]1O[C@@H](c2cnc3c(NC4CCC(F)(F)C4)nc(Cl)nn23)[C@H](O)[C@@H]1O (stereo partly drawn) [Compound 49, (((((2R,3S,4R,1S)-5-(2-chloro-4-((3,3-difluorocyclopentyl)amino)imidazo[2,1-f][1,2,4]triazin-7-yl)-3,4-dihydroxytetrahydrofuran-2-yl)methoxy)(hydroxy)phosphoryl)methyl)phosphonic Acid]"
< 10,< 1,"O=P(O)(O)CP(=O)(O)OC[C@H]1O[C@@H](c2cnc3c(NC4CC5CCC4C5)nc(Cl)nn23)[C@H](O)[C@@H]1O (stereo partly drawn) [Compound 50, [({[(2R,3S,4R,5S)-5-(4-{bicyclo[2.2.1]heptan-2-ylamino}-2-chloroimidazo[2,1-f][1,2,4]triazin-7-yl)-3,4-dihydroxyoxolan-2-yl]methoxy}(hydroxy)phosphoryl)methyl]phosphonic acid]"
< 10,< 1,"C[C@H](Nc1nc(Cl)nn2c([C@@H]3O[C@H](COP(=O)(O)CP(=O)(O)O)[C@@H](O)[C@H]3O)cnc12)c1ccc(F)c(F)c1 [Compound 52, (((((2R,3S,4R,5S)-5-(2-chloro-4-(((S)-1-(3,4-difluorophenyl)ethyl)amino)imidazo[2,1-f][1,2,4]triazin-7-yl)-3,4-dihydroxytetrahydrofuran-2-yl)methoxy)(hydroxy)phosphoryl)methyl) phosphonic acid]"
< 10,< 1,"C[C@H](Nc1nc(Cl)nn2c([C@@H]3O[C@H](COP(=O)(O)CP(=O)(O)O)[C@@H](O)[C@H]3O)cnc12)c1ccc(Cl)c(Cl)c1 [Compound 53, (((((2R,3S,4R,5S)-5-(2-chloro-4-(((S)-1-(3,4-dichlorophenyl)ethyl)amino)imidazo[2,1-f][1,2,4]triazin-7-yl)-3,4-dihydroxytetrahydrofuran-2-yl)methoxy)(hydroxy)phosphoryl)methyl)phosphonic acid]"
< 10,< 1,"C[C@H](Nc1nc(Cl)nn2c([C@@H]3O[C@H](COP(=O)(O)CP(=O)(O)O)[C@@H](O)[C@H]3O)cnc12)c1ccc(Cl)cc1 [Compound 54, (((((2R,3S,4R,1S)-5-(2-chloro-4-(((S)-1-(4-chlorophenyl)ethyl)amino)imidazo[2,1-f][1,2,4]triazin-7-yl)-3,4-dihydroxytetrahydrofuran-2-yl)methoxy)(hydroxy)phosphoryl)methyl)phosphonic Acid]"
< 10,< 1,"O=P(O)(O)CP(=O)(O)OC[C@H]1O[C@@H](c2cnc3c(N4CCC[C@H]4c4ccccc4F)nc(Cl)nn23)[C@H](O)[C@@H]1O [Compound 55, (((((2R,3S,4R,1S)-5-(2-chloro-4-((S)-2-(2-fluorophenyl)pyrrolidin-1-yl)imidazo[2,1-f][1,2,4]triazin-7-yl)-3,4-dihydroxytetrahydrofuran-2-yl)methoxy)(hydroxy)phosphoryl)methyl)phosphonic Acid]"
